Measured values reported in article PMC12373846, “Hemoglobin as a pseudoperoxidase and drug target for oxidative stress-related diseases” (Signal Transduction and Targeted Therapy, 2025).

Tested on: SOD1^G93A mice
Assay: Immunohistochemistry of ventral spinal cord, SOD1^G93A mice
Format: in vivo, mouse
Conditions: SOD1+KDS
Description: SOD1^G93A mice (B6SJL-Tg(SOD1*G93A)1Gur/J) were purchased from Jackson Laboratory (strain number 002726) and used in the ALS mouse model. The mice were divided into four groups: Control, SOD1, and KDS12025 (1 and 10 mg/kg/day). Starting at 10 weeks of age, KDS12025 was administered via ad libitum drinking water at doses of 1 mg/kg/day and 10 mg/kg/day. The control and SOD1 groups received standard drinking water. Motor function was evaluated weekly via the rotarod performance test, and the ratio of running time was normalized to that of littermate controls to assess motor coordination and endurance over time. Survival of the mice was monitored for up to 24 weeks, and median survival times were calculated for each group.
The mice were deeply anesthetized with 2% isoflurane and positioned on the operating table. […] A series of fluorescence images were obtained with an LSM900 (Zeiss, Germany) confocal microscope or Lattice SIM Elyra 7 (Zeiss, Germany). […] This analysis quantified the intersections of GFAP-labeled processes within each circle, calculating the ramification index and ending radius, enabling the evaluation of astrocytic hypertrophy and morphological changes, as previously described.[78] In the focal GiD mouse model, NeuN-positive CA1 pyramidal neurons were quantified within a 50 × 50 μm^2 region via ImageJ to determine the number of CA1 pyramidal neurons.

SMILES: CNc1ccc(NCCc2ccccc2OC)cc1.Cl [KDS12025, N^1-(2-methoxyphenethyl)-N^4-methylbenzene-1,4-diamine hydrochloride salt]
- Hbβ in GFAP-positive astrocytes, ventral spinal cord (Fig. S15b): Control (2194±76.5, n=25), SOD1 (1209±54.8, n=31), SOD1+KDS (2557±108.6, n=37) One-way ANOVA with Tukey's multiple comparisons test, F(2,90) = 65.01, p < 0.001 Control vs. SOD1, p < 0.001; Control vs. SOD1+KDS, p = 0.02; SOD1 vs. SOD1+KDS, p < 0.001
- Hbβ in NeuN-positive neurons, ventral spinal cord (Fig. S15d): Control (1961±96.1, n=22), SOD1 (1183±89.9, n=19), SOD1+KDS (2326±85.3, n=17) One-way ANOVA with Tukey's multiple comparisons test, F(2,55) = 38.14, p < 0.001 Control vs. SOD1, p < 0.001; Control vs. SOD1+KDS, p = 0.02; SOD1 vs. SOD1+KDS, p < 0.001
